Consider two molecules from US20170226483A1, “Methods and Vectors to Produce Vector Free Induced Pluripotent Stem Cells” (Lonza Walkersville, Inc., priority 2016, published 2017).

The test system of series [1] is BALB/c murine K3T3 sarcoma cell lines with herpes simplex virus thymidine kinase gene. The conditions noted are these: K3T3 sarcoma cell lines carrying HSV thymidine kinase gene; cited from earlier work.
The subject of series [2] is K3T3 sarcoma tumors. The conditions noted are these: BALB/c mice bearing K3T3 sarcoma tumors produced by the cell lines; cited from earlier work.
In series [3] the test system is hiPSC that do not express the respective suicide gene. Description: Cytotoxic effect of the suicide gene substrate on hPSCs that do not express the suicide gene (alkaline phosphatase staining). It is filed as cell-based, human. The conditions noted are these: 48 hours. The source says:
Cell were fixed and stained for alkaline phosphatase activity after 48 hr. […] Additional experiments will determine the required levels of ganciclovir and 5-FC in hiPSCs that express the suicide gene, to determine the minimum concentration required.

For `Nc1nc(O)c2ncn(COC(CO)CO)c2n1` [ganciclovir, Ganciclovir], in series [1], the “effect on tumor cells in vitro” value is on record as “destruction of the tumor cells”. The “effect on tumors in vivo” value in series [2] is “destruction of the tumors”. Besides, the “cytotoxic effect on hiPSCs” value in series [3] (ganciclovir 0.2, 2 or 20 μM) is “no cytotoxic effect”.

For the molecule `Nc1nc(=O)[nH]cc1F` [Vector 5-FC, 5-Flurocytosine], the “cytotoxic effect on hiPSCs” value in series [3] (5-FC 1, 10 and 100 μM) was “no cytotoxic effect”.
